Reference: US9815796B2 (Merck Sharp & Dohme Corp., priority 2013, dated 2017)
Read-outs that look alike come from different tables or passages of the source.

How the values were obtained:
Rhesus PDE2A3 = Rhesus PDE2A3 (Macaca mulatta, UniProt B3VTJ2); experiment: PDE2 fluorescence polarization (IMAP FP) inhibition assay, rhesus enzyme; type: biochemical, rhesus macaque
Summary of the method: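 Rhesus PDE2A3 came from lysate of transiently transfected AD293 cells, diluted to give 20% substrate conversion. Substrate was 50 nM FAM-cAMP with 1 uM cGMP activator in Tris pH 7.2/MgCl2 buffer, run 60 min at room temperature over 10-point 3-fold dilutions in 1% DMSO. Read-out was IMAP fluorescence polarization (mP) after ≥1 h binding.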

human PDE2A1 = human PDE2A1 (Homo sapiens (Human), UniProt O00408); experiment: IMAP FP PDE selectivity panel, human PDE2A1; type: biochemical
Sequence of human PDE2A1 (O00408 other isoform, or with tags, fused parts or gaps): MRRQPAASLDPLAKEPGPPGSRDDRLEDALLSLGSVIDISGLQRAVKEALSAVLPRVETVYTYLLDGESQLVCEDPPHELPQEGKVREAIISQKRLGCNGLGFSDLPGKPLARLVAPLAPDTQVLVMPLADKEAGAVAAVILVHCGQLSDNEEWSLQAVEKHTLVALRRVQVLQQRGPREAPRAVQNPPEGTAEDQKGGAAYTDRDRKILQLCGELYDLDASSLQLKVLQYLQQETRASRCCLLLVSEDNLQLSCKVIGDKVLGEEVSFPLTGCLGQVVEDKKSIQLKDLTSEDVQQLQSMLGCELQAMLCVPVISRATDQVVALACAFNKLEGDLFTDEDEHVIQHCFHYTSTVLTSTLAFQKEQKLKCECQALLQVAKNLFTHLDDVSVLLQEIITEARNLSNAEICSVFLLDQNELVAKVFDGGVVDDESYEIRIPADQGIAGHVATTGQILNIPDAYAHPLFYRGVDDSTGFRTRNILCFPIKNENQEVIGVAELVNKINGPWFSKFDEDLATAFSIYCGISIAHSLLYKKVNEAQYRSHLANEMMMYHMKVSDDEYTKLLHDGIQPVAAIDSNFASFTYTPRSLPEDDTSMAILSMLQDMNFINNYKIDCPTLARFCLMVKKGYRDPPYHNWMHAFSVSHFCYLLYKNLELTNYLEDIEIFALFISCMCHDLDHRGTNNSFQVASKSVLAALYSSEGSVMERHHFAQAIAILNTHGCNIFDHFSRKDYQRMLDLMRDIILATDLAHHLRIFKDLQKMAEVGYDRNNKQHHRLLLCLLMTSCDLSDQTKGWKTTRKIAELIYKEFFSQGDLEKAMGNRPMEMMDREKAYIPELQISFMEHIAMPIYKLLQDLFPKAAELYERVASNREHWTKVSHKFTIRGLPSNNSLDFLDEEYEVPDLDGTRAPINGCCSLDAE
Summary of the method: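 GST-tagged human PDE2A1 expressed in insect cells, run at room temperature for 60 min with 50 nM FAM-cAMP containing 1000 nM cGMP, pH 7.2 Tris/MgCl2 buffer. IMAP fluorescence polarization read after binding step.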

[1] = Rhesus PDE2, Lab A, read-out: Rhesus PDE2 Ki (nM) - Lab A
[2] = Human PDE2, Lab A, read-out: Human PDE2 Ki (nM) - Lab A
[3] = Rhesus PDE2, Lab B, read-out: Rhesus PDE2 Ki (nM) - Lab B
[4] = Human PDE2, Lab B, read-out: Human PDE2 Ki (nM) - Lab B

Sequence of Rhesus PDE2A3 (B3VTJ2 1-941): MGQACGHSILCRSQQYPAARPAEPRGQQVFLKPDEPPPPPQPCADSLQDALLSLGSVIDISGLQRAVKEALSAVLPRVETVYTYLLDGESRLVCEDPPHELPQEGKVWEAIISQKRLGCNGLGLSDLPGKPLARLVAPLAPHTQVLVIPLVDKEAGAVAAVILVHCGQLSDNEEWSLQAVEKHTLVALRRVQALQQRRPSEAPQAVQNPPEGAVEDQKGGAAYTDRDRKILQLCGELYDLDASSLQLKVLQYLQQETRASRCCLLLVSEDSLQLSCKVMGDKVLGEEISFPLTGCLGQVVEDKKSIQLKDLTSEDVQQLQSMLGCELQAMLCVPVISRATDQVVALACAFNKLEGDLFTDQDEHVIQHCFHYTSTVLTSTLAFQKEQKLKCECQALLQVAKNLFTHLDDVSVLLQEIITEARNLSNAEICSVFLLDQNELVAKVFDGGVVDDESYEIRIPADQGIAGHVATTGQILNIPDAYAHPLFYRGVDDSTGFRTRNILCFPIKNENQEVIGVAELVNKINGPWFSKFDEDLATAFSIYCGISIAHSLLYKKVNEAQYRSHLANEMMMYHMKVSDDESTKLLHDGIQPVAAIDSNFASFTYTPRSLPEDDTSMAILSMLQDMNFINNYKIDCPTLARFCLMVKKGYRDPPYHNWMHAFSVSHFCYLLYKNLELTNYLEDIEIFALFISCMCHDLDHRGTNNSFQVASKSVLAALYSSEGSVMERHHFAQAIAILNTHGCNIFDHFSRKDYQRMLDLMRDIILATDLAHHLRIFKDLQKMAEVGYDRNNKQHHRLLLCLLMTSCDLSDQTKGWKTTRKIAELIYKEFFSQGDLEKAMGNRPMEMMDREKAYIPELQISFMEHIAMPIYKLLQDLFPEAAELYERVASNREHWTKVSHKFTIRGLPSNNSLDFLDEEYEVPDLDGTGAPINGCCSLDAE

Row | SMILES | Ki (Rhesus PDE2A3; [1]) [nM] | Ki (human PDE2A1; [2]) [nM] | Ki (Rhesus PDE2A3; [3]) [nM] | Ki (human PDE2A1; [4]) [nM]
1 | Cc1nc(C(=O)N[C@@H](c2ccc(SC(F)(F)F)c(F)c2)C(C)C)cc(=O)[nH]1 [Example 53, N-[(1R)-1-{3-fluoro-4-[(trifluoromethyl)sulfanyl]phenyl}-2-methylpropyl]-2-methyl-6-oxo-1,6-dihydropyrimidine-4-carboxamide] | 3.6 | 2.8 | – | –
2 | CC(C)(C)[C@@H](NC(=O)c1cc(=O)[nH]c(C2CC2)n1)c1ccc(CC(F)(F)F)cc1 [Example 441, 2-cyclopropyl-N-{(1R)-2,2-dimethyl-1-[4-(2,2,2-trifluoroethyl)phenyl]propyl}-6-oxo-1,6-dihydropyrimidine-4-carboxamide] | – | – | 3.8 | 6.4
3 | O=C(N[C@@H](c1ccc(OC(F)(F)F)c(F)c1)C1CC1)c1cc(=O)[nH]c(C2CC2)n1 [Example 212] | 6.1 | 2.6 | – | –
4 | O=C(NC1(c2ccc(SC(F)(F)F)cc2)CCC1)c1cc(=O)[nH]c(C2CC2)n1 [Example 204, 2-cyclopropyl-6-oxo-N-(1-{4-[(trifluoromethyl)sulfanyl]phenyl}cyclobutyl)-1,6-dihydropyrimidine-4-carboxamide] | 37 | 20 | – | –
5 | CC(C)[C@@H](NC(=O)c1cc(=O)[nH]c(-c2ncccn2)n1)c1ccc(C(F)(F)F)cc1 [Example 73, N-{(1R)-2-methyl-1-[4-(trifluoromethyl)phenyl]propyl}-6-oxo-1,6-dihydro-2,2′-bipyrimidine-4-carboxamide] | 4.1 | – | 4.9 | 5.3
6 | CC1(C(NC(=O)c2cc(=O)[nH]c(C3CC3)n2)c2ccc(SC(F)(F)F)c(F)c2)CC1 (single isomer, unassigned) [Example 704, (R)- or (S)-2-cyclopropyl-N-((3 fluoro-4-((trifluorormethyl)thio)phenyl)(1-methylcyclopropyl)methyl)-6-oxo-1,6-dihydropyrimidine-4-carboxamide] | – | – | 4.7 | 3.6
7 | O=C(N[C@@H](c1ccc(SC(F)(F)F)c(F)c1)C1CC1)c1cc(=O)[nH]c(C2CC2)n1 [Example 434] | – | – | 6.7 | 7.9
8 | Cc1nc(C(=O)N[C@@H](c2ccc(C(F)(F)F)cc2)C2(C)CC2)cc(=O)[nH]1 [Example 612, 2-methyl-N-{(R)-(1-methylcyclopropyl)[4-(trifluoromethyl)phenyl]methyl}-6-oxo-1,6-dihydropyrimidine-4-carboxamide] | – | – | 11 | 11
9 | Cc1nc(C(=O)N[C@@H](c2ccc(SC(F)(F)F)cc2)C(C)C)cc(=O)[nH]1 [Example 30, 2-methyl-N-[(1R)-2-methyl-1-{4-[(trifluoromethyl)sulfanyl]phenyl}propyl]-6-oxo-1,6-dihydropyrimidine-4-carboxamide] | 3.2 | 2.2 | – | –
10 | CSCC(NC(=O)c1cc(=O)[nH]c(C)n1)c1ccc(C(F)(F)F)cc1 (stereo not drawn) [Example 131, 2-methyl-N-{2-(methylsulfanyl)-1-[4-(trifluoromethyl)phenyl]ethyl}-6-oxo-1,6-dihydropyrimidine-4-carboxamide] | 170 | 123 | – | –
11 | CC(C)(C)[C@@H](NC(=O)c1cc(=O)[nH]c(C2CC2)n1)c1ccc(OC(F)F)cc1 [Example 436, 2-cyclopropyl-N-{(1R)-1-[4-(difluoromethoxy)phenyl]-2,2-dimethylpropyl}-6-oxo-1,6-dihydropyrimidine-4-carboxamide] | – | – | 3.5 | 3.2
12 | Cc1nc(C(=O)N[C@H](C)c2ccc(C(F)(F)F)c(C)c2)cc(=O)[nH]1 [Example 46, 2-methyl-N-{(1R)-1-[3-methyl-4-(trifluoromethyl)phenyl]ethyl}-6-oxo-1,6-dihydropyrimidine-4-carboxamide] | 65 | 72 | – | –

The next lines start with the values.

Row | Ki (Rhesus PDE2A3; [1]) [nM] | Ki (human PDE2A1; [2]) [nM] | Ki (Rhesus PDE2A3; [3]) [nM] | Ki (human PDE2A1; [4]) [nM] | SMILES
13 | 5.5 | 3.4 | – | – | C[C@@H](NC(=O)c1cc(=O)[nH]c(-c2ncccn2)n1)c1ccc(OC(F)(F)F)c(F)c1 [Example 103, N-{(1R)-1-[3-fluoro-4-(trifluoromethoxy)phenyl]ethyl}-6-oxo-1,6-dihydro-2,2′-bipyrimidine-4-carboxamide]
14 | 26 | – | 41 | 41 | COc1ccc2cc(C(C)NC(=O)c3cc(=O)[nH]c(-c4ccccc4)n3)ccc2c1 (stereo not drawn) [Example 378, N-[1-(6-methoxynaphthalen-2-yl)ethyl]-6-oxo-2-phenyl-1,6-dihydropyrimidine-4-carboxamide]
15 | – | – | 1.2 | 1.4 | COc1ccc(Cc2nc(C(=O)N[C@@H](c3ccc(SC(F)(F)F)cc3)C(C)C)cc(=O)[nH]2)cc1F [Example 511, 2-(3-fluoro-4-methoxybenzyl)-N-[(1R)-2-methyl-1-{4-[(trifluoromethyl)sulfanyl]phenyl}propyl]-6-oxo-1,6-dihydropyrimidine-4-carboxamide]
16 | 6.3 | 2.2 | – | – | COc1ccc(Cc2nc(C(=O)N[C@H](C)c3ccc(C(F)(F)F)cc3)cc(=O)[nH]2)cc1 [Example 136, 2-(4-methoxybenzyl)-6-oxo-N-{(1R)-1-[4-(trifluoromethyl)phenyl]ethyl}-1,6-dihydropyrimidine-4-carboxamide]
17 | 4 | 2.2 | – | – | CC[C@@H](NC(=O)c1cc(=O)[nH]c(-c2ccccc2)n1)c1ccc(OC(F)(F)F)cc1 [Example 179, 6-oxo-2-phenyl-N-{(1R)-1-[4-(trifluoromethoxy)phenyl]propyl}-1,6-dihydropyrimidine-4-carboxamide]
18 | 136 | 110 | – | – | Cc1ccccc1-c1nc(C(=O)N[C@H](C)c2ccc(C(F)(F)F)cc2)cc(=O)[nH]1 [Example 141, 2-(2-methylphenyl)-6-oxo-N-{(1R)-1-[4-(trifluoromethyl)phenyl]ethyl}-1,6-dihydropyrimidine-4-carboxamide]
19 | 16 | 13 | – | – | C[C@@H](NC(=O)c1cc(=O)[nH]c(-c2ccccc2)n1)c1ccc(OC(F)(F)F)cc1F [Example 152]
20 | – | – | 2.2 | 2 | CC[C@@H](NC(=O)c1cc(=O)[nH]c(Cc2ccc(OC)c(F)c2)n1)c1ccc(OC(F)(F)F)cc1 [Example 529, 2-(3-fluoro-4-methoxybenzyl)-6-oxo-N-{(1R)-1-[4-(trifluoromethoxy)phenyl]propyl}-1,6-dihydropyrimidine-4-carboxamide]
21 | – | – | 38 | 29 | O=C(NC1(c2ccc(C(F)(F)F)cc2)COC1)c1cc(=O)[nH]c(-c2ccccc2)n1 [Example 402, 6-oxo-2-phenyl-N-{3-[4-(trifluoromethyl)phenyl]oxetan-3-yl}-1,6-dihydropyrimidine-4-carboxamide]
22 | – | – | 38 | 40 | CC[C@@H](NC(=O)c1cc(=O)[nH]c(C(C)(C)c2ccc(OC)cc2)n1)c1ccc(SC(F)(F)F)c(F)c1 [Example 496, N-[(1R)-1-{3-fluoro-4-[(trifluoromethyl)sulfanyl]phenyl}propyl]-2-[1-(4-methoxyphenyl)-1-methylethyl]-6-oxo-1,6-dihydropyrimidine-4-carboxamide]
23 | – | – | 1.9 | 1.9 | COc1ccc(Cc2nc(C(=O)N[C@@H](c3ccc(OC(F)(F)F)cc3)C3CC3)cc(=O)[nH]2)cc1 [Example 480, N-{(R)-cyclopropyl[4-(trifluoromethoxy)phenyl]methyl}-2-(4-methoxybenzyl)-6-oxo-1,6-dihydropyrimidine-4-carboxamide]
